Patent EP1117659B1, “SUBSTITUTED 3-CYANOQUINOLINES AS PROTEIN TYROSINE KINASES INHIBITORS” (Wyeth Holdings Corporation, priority 1998, dated 2000)
Values after ≈ are worked out from the molar mass of the structure shown. Values joined by “and” are separate entries in the source; they are usually repeats but may differ in a detail not shown here. Equal values may be shown once. Read-outs that look alike come from different tables or passages of the source.

Experiments:
3T3/c-erbb2 = assay: Inhibition of Cancer Cell Growth as Measured by Cell Number (Sulforhodamine B); type: cell-based; conditions: 48 hours exposure
Protocol: (§1) Human tumor cell lines were plated in 96-well plates (250 µl/well, 1-6 x 10^4 cells/ml) in RPMI 1640 medium, containing 5% FBS (Fetal Bovine Serum). […] After 48 hours exposure to test compounds, cells were fixed with trichloroacetic acid, and stained with Sulforhodamine B. After washing with trichloroacetic acid, bound dye was solubilized in 10 mM Tris base and optical density was determined using plate reader. Under conditions of the assay the optical density is proportional to the number of cells in the well. […] The test procedure is described in details by Philip Skehan et. al, J.Natl. Canc. Inst., 82, 1107-1112 (1990). […] Information about some of the cell lines used in these test procedures is available from the American Type Tissue Collection: Cell Lines and Hybridomas, 1994 Reference Guide, 8th Edition.

3T3 = assay: as above; type: cell-based; conditions: 48 hours exposure; for IC50: Mus musculus, NIH3T3
Protocol: as §1

[1] = target: Epithelial Cell Kinase (ECK) (Homo sapiens, UniProt P29317); assay: Inhibition of Epithelial Cell Kinase (ECK), immobilized biotinylated peptide, HRP anti-phosphotyrosine readout; type: biochemical; conditions: IC50, substrate phosphorylation
Protocol: In this standard pharmacological test procedure, a biotinylated peptide substrate is first immobilized on neutravidin-coated microtiter plates. The test drug, the Epithelial Cell Kinase (ECK), Mg^++, sodium vanadate (a protein tyrosine phosphatase inhibitor), and an appropriate buffer to maintain pH (7.2) are then added to the immobilized substrate-containing microtiter wells. ATP is then added to initiate phosphorylation. After incubation, the assay plates are washed with a suitable buffer leaving behind phosphorylated peptide which is exposed to horse radish peroxidase (HRP)-conjugated anti-phosphotyrosine monoclonal antibody. The antibody-treated plates are washed again and the HRP activity in individual wells is quantified as a reflection of degree of substrate phosphorylation. […] Multiple entries for a given compound indication it was tested multiple times.

A431 = assay: Inhibition of Cancer Cell Growth as Measured by Cell Number (Sulforhodamine B); type: cell-based, Human; conditions: 48 hours exposure; for IC50: Homo sapiens, A-431, 48 h
Protocol: as §1

SK-BR3 = assay: as above; type: cell-based, Human; conditions: 48 hours exposure; for IC50: Homo sapiens, SK-BR-3, 48 h
Protocol: as §1

MDA-MB-435 = assay: as above; type: cell-based, Human; conditions: 48 hours exposure; for IC50: Homo sapiens, MDA-MB-435, 48 h
Protocol: as §1

SW620 = assay: as above; type: cell-based, Human; conditions: 48 hours exposure; for IC50: Homo sapiens, SW-620, 48 h
Protocol: as §1

[2] = target: T1, Kinase insert Domain containing Receptor (KDR: the catalytic domain of the VEGF receptor) (Homo sapiens, UniProt P35968); assay: Inhibition of Kinase insert Domain containing Receptor (KDR), radioactive phosphorylation of Glu:Tyr copolymer; type: biochemical; conditions: IC50, substrate phosphorylation
T1 construct: KDR: the catalytic domain of the VEGF receptor
Protocol: In this standard pharmacological test procedure, KDR protein is mixed, in the presence or absence of a inhibitor compound, with a substrate peptide to be phosphorylated (a copolymer of glutamic acid and tyrosine, E:Y :: 4:1) and other cofactors such as Mg^++ and sodium vanadate (a protein tyrosine phosphatase inhibitor) in an appropriate buffer to maintain pH (7.2). ATP and a radioactive tracer (either P^32- or P^33- labeled ATP) is then add to initiate phosphorylation. After incubation, the radioactive phosphate associated with the acid-insoluble fraction of the assay mixture is then quantified as reflection of substrate phosphorylation. […] Multiple entries for a given compound indication it was tested multiple times.

[3] = target: Recombinant human MEK 1 (MAPKK) / recombinant human ERK2 (MAPK) (Mek-Erk) (Homo sapiens, UniProt P28482+Q02750); assay: Mitogen Activated Protein Kinase (MAPK) assay, two component coupled Mek-Erk test; type: biochemical
Protocol: To evaluate inhibitors of the MAP (mitogen activated protein) kinase a two component coupled standard pharmacological test procedure, which measures phosphorylation of a serine/threonine residue in an appropriate sequence in the substrate in the presence and absence of a putative inhibitor, was used. Recombinant human MEK 1 (MAPKK) was first used to activate recombinant human ERK2 (MAPK) and the activated MAPK (ERK) was incubated with substrate (MBP peptide or MYC peptide) in the presence of ATP, Mg^+2 and radiolabeled ^33P ATP. The phosphorylated peptide was captured on a P 81 phosphocellulose filter (paper filter or embedded in microtiter plate) washed and counted by scintillation methods.
The peptide substrates used in the assay are MBP, peptide substrate ([sequence]), or synthetic Myc substrate, ([sequence]•5 TFA. The recombinant enzymes used were prepared as GST fusion proteins of human ERK 2 and human MEK 1. Inhibitor samples were prepared as 10X stocks in 10% DMSO and an appropriate aliquot was used to deliver either 10 ug/ml for a single point screening dose or 100, 10, 1, and 0.1 uM final concentration for a dose response curve. Final DMSO concentrations were less than or equal to 1%.
The reaction was run as follows in 50 mM Tris kinase buffer, pH 7.4 in a reaction volume of 50 ul. The appropriate volume of kinase buffer and inhibitor sample was added to the tube. Appropriate dilution of enzyme was delivered to give 2-5 ug recombinant MAPK (Erk ) per tube. The inhibitor was incubated with MAPK (Erk) for 30 min at 0° C. Recombinant Mek (MAPKK) ( 0.5-2.5 ug) or fully activated Mek (0.05-0.1 units) was added to activate the Erk and incubated for 30 min at 30° C. Then substrate and gamma ^33P ATP was were added to give a final concentration of 0.5- 1 mM MBPP or 250-500 uM Myc; 0.2-0.5 uCi gamma P 33 ATP/tube; 50 µM ATP final concentration. Samples were incubated at 30°C for 30 minutes and the reaction was stopped by adding 25 µl of ice cold 10 %TCA .After samples were chilled on ice for 30 min, 20 µl of sample was transferred onto P 81 phosphocellulose filter paper or appropriate MTP with embedded P 81 filter. Filter papers or MTP were washed 2 times with a large volume of 1% acetic acid, then 2 times with water. The filters or MTP were briefly air dried before addition of scintillant and samples were counted in the appropriate scintillation counter set up for reading ^33P isotope.
The raw data was captured as cpm. Sample replicates were averaged and corrected for background count. Mean cpm data was tabulated by group and % inhibition by a test compound was calculated as (corrected cpm control- corrected. cpm sample/control) X 100 = % inhibition.

[4] = target: T2, epidermal growth factor receptor kinase (EGF-R Kinase, recombinant enzyme; His-tagged cytoplasmic domain of EGFR) (Homo sapiens, UniProt P00533); assay: Inhibition of Epidermal Growth Factor Receptor Kinase (EGF-R) using recombinant enzyme, RR-SRC peptide phosphorylation, 33P-ATP; type: biochemical; conditions: for inhibition at 0.5 µM: read-out: %Inh @ 0.5 µM; for IC50: recombinant enzyme, 90 min at room temperature
T2 construct: EGFR cDNA encoding amino acids 645 - 1186 preceded by Met-Ala-(His)6; Met-Ala-(His)6 (N); made in house; host or cells: Sf9 insect cells, recombinant baculovirus vHcEGFR52
Protocol: Representative test compounds were evaluated for their ability to inhibit the phosphorylation of the tyrosine residue of a peptide substrate catalyzed by the enzyme epidermal growth factor receptor kinase. The peptide substrate (RR-SRC) has the sequence arg-arg-leu-ile-glu-asp-ala-glu-tyr-ala-ala-arg-gly. The enzyme used in this test procedure is the His-tagged cytoplasmic domain of EGFR. A recombinant baculovirus (vHcEGFR52) was constructed containing the EGFR cDNA encoding amino acids 645 - 1186 preceded by Met-Ala-(His)6. Sf9 cells in 100 mm plates were infected at an moi of 10 pfu/cell and cells were harvested 48 h post infection. A cytoplasmic extract was prepared using 1% Triton X-100 and applied to Ni-NTA column. After washing the column with 20 mM imidazole, HcEGFR was eluted with 250 mM imidazole (in 50 mM Na2HPO4, pH 8.0, 300 mM NaCl). Fractions collected were dialyzed against 10 mM HEPES, pH 7.0, 50 mM NaCl, 10% glycerol, lug/mL antipain and leupeptin and 0.1 mM Pefabloc SC. The protein was frozen in dry ice/methanol and stored -70°C.
Test compounds were made into 10 mg/mL stock solutions in 100% dimethylsulfoxide (DMSO). Prior to experiment, stock solutions were diluted to 500 uM with 100% DMSO and then serially diluted to the desired concentration with HEPES buffer (30 mM HEPES pH 7.4).
For the enzyme reaction, 10 uL of each inhibitor (at various concentrations) were added to each well of a 96-well plate. To this was added 3 uL of enzyme (1:10 dilution in 10mM HEPES, pH 7.4 for final cone. of 1:120). This was allowed to sit for 10 min on ice and was followed by the addition of 5 ul peptide (80 uM final cone.), 10ul of 4X Buffer (Table A), 0.25 uL ^33P-ATP and 12 uL H2O. The reaction was allowed to run for 90 min at room temperature and was followed by spotting the entire volume on to precut P81 filter papers. The filter discs were washed 2X with 0.5% phosphoric acid and radioactivity was measured using a liquid scintillation counter.
The inhibition data for representative compounds of the invention are shown below in TABLE 1. […] The % inhibition of the test compound was determined for at least three different concentrations and the IC50 value was evaluated from the dose response curve. […] CPM(control) is in units of counts per minute and was a number expressing the amount of radiolabled ATP (γ-^33P) incorporated into the RR-SRC peptide substrate by the enzyme after 90 minutes at room temperature in the absence of test compound as measured by liquid scintillation counting. The CPM values were corrected for the background counts produced by ATP in the absence of the enzymatic reaction. […]

T2 sequence (P00533 669-1210): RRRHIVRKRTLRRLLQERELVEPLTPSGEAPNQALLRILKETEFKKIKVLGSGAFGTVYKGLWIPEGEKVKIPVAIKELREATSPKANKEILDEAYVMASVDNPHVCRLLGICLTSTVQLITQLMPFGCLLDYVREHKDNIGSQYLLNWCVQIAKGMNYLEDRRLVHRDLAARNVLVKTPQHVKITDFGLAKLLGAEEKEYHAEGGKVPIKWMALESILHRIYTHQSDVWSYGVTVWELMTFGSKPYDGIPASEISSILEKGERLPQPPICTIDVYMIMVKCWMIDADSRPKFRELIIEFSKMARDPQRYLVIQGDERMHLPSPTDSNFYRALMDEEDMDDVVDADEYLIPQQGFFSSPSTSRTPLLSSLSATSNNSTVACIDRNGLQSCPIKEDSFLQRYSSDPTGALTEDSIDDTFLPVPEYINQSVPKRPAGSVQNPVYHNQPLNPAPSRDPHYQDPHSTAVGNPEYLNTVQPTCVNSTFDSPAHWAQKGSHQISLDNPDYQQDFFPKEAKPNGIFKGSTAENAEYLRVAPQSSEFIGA
T1 sequence (P35968 834-1162 limits assumed): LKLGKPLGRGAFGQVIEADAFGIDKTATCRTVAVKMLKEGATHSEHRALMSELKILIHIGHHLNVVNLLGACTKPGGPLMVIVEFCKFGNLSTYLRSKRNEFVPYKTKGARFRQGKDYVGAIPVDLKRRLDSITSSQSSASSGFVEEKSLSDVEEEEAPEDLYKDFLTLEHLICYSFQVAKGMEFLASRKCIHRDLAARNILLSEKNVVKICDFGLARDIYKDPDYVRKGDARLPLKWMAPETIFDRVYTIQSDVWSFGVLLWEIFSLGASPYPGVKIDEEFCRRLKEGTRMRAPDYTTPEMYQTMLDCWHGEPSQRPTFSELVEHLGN
Chain of Epithelial Cell Kinase (ECK) (P29317 24-976, species assumed): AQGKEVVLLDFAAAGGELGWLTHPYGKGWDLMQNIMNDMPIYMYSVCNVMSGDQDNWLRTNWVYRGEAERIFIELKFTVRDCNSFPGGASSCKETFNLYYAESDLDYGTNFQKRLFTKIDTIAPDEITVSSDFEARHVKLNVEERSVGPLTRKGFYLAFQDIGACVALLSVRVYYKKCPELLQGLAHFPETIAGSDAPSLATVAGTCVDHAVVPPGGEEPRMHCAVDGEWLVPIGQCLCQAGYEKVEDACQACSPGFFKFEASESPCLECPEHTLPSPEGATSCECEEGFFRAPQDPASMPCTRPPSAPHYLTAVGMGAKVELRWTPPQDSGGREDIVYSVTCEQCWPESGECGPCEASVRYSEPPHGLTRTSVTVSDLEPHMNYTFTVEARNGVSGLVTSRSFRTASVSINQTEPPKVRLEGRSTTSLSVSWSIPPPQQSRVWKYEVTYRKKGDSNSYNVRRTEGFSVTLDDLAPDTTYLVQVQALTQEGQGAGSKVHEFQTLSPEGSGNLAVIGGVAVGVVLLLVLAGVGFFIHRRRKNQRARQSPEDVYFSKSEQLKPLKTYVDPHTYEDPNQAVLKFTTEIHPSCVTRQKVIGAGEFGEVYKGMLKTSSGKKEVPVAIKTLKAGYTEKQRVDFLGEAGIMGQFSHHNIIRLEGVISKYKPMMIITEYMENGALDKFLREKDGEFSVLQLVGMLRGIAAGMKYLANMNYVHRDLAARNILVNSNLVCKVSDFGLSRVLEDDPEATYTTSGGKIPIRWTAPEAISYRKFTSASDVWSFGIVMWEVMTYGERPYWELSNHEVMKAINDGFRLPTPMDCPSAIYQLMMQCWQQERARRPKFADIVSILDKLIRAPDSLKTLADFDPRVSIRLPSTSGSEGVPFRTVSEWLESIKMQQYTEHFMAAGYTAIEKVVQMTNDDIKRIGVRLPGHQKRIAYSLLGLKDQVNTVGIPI
Chain of Recombinant human MEK 1 (MAPKK) / recombinant human ERK2 (MAPK) (Mek-Erk) (P28482 2-360): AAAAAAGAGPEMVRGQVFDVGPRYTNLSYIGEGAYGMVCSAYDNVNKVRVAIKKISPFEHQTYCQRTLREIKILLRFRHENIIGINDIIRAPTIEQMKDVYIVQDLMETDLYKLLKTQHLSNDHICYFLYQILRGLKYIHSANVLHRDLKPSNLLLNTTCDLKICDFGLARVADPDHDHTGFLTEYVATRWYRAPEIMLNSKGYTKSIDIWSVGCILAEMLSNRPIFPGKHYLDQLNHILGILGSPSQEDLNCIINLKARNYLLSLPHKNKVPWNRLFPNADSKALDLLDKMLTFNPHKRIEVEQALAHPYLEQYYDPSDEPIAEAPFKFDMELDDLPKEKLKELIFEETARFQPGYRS
Chain of Recombinant human MEK 1 (MAPKK) / recombinant human ERK2 (MAPK) (Mek-Erk) (Q02750 whole entry, the tested form may be a part): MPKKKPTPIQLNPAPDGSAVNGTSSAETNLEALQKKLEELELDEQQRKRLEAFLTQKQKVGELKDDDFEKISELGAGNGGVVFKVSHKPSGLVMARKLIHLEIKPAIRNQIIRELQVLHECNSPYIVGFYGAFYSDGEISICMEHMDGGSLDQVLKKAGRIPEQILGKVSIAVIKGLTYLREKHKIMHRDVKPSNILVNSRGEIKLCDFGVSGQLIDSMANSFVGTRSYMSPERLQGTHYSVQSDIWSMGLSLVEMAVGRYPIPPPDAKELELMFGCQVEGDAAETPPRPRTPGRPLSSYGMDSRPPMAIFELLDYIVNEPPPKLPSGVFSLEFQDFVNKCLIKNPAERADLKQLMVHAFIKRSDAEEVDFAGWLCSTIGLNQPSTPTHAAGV

Compound	IC50 [1]	IC50 [2]	IC50 ([3]; read-out: Mek-Erk)	inhibition at 0.5 µM [4]	IC50 [4]	other results
4-(2,3-Dihydro-benzo[1,4]dioxin-6-ylamino)-6,7-diethoxy-quinoline-3-carbonitrile [Example 105]	> 51.1 µM	76.6 µM				IC50 µg/mL 3T3/c-erbb2 (3T3/c-erbb2): 0.375 µg/mL; IC50 µg/mL 3T3 (3T3): 0.853 µg/mL; IC50 µg/mL A431 (A431): 0.270 µg/mL; IC50 µg/mL SK-BR3 (SK-BR3): 0.281 µg/mL; IC50 µg/mL MDA-MB-435 (MDA-MB-435): 0.235 µg/mL; IC50 µg/mL SW620 (SW620): 0.411 µg/mL
COCCOc1cc2ncc(C#N)c(Nc3ccc4cn[nH]c4c3)c2cc1OCCOC [Example 106, 4-(1H-Indazol-6-ylamino)-6,7-bis-(2-methoxy-ethoxy)-quinoline-3-carbonitrile]	> 46.1 µM	23.1 µM				IC50 (3T3/c-erbb2): > 5 µg/mL; IC50 (3T3): > 5 µg/mL; IC50 (A431): 1.96 µg/mL (≈ 4.52 µM); IC50 (SK-BR3): > 5 µg/mL; IC50 (MDA-MB-435): 2.04 µg/mL (≈ 4.72 µM); IC50 (SW620): > 5 µg/mL
CCOc1cc2ncc(C#N)c(Nc3ccc4c(=O)[nH][nH]c(=O)c4c3)c2cc1OCC [Example 107, 4-(1,4-Dioxo-1,2,3,4-tetrahydro-phthalazin-6-ylamino)-6,7-diethoxy-quinoline-3-carbonitrile]	> 47.9 µM	> 71.9 µM				IC50 (3T3/c-erbb2): > 5 µg/mL; IC50 (3T3): > 5 µg/mL; IC50 (A431): > 5 µg/mL; IC50 (SK-BR3): > 5 µg/mL; IC50 (MDA-MB-435): > 5 µg/mL; IC50 (SW620): > 5 µg/mL
COc1cc2ncc(C#N)c(Nc3ccc4c(C)cc(=O)[nH]c4c3)c2cc1OC [Example 129, 6,7-Dimethoxy-4-(4-methyl-2-oxo-1,2-dihydro-quinolin-7-ylamino)-quinoline-3-carbonitrile]	> 25.9 µM	> 25.9 µM	> 100 µM	6.7%	> 1 µM	
COc1cc2ncc(C#N)c(Nc3ccc4sc(C)nc4c3)c2cc1OC [Example 130, 6,7-Dimethoxy-4-(2-methyl-benzothiazol-5-ylamino)-quinoline-3-carbonitrile]	> 26.6 µM	> 26.6 µM	> 100 µM	5%	> 1 µM	
COc1cc2ncc(C#N)c(Nc3ccc4[nH]c(=O)sc4c3)c2cc1OC [Example 131, 6,7-Dimethoxy-4-(2-oxo-2,3-dihydro-benzothiazol-6-ylamino)-quinoline-3-carbonitrile]	> 26.4 µM	> 26.4 µM	> 100 µM	0%	> 1 µM	
COc1cc2ncc(C#N)c(Nc3cccc4ncccc34)c2cc1OC [Example 132, 6,7-Dimethoxy-4-(quinolin-5-ylamino)-quinoline-3-carbonitrile]	> 28.1 µM	> 28.1 µM	90 µM	0%	> 1 µM	
COc1cc2ncc(C#N)c(Nc3cccc4cnccc34)c2cc1OC [Example 133, 4-(Isoquinolin-5-ylamino)-6,7-dimethoxy-quinoline-3-carbonitrile]	> 28.1 µM	> 28.1 µM	90 µM	0%	> 1 µM	
COc1cc2ncc(C#N)c(Nc3cccc4cccnc34)c2cc1OC [Example 134, 6,7-Dimethoxy-4-(quinolin-8-ylamino)-quinoline-3-carbonitrile]	> 28.1 µM	> 28.1 µM	> 100 µM	35%	> 1 µM	
COc1cc2ncc(C#N)c(Nc3ccc(O)c4ncccc34)c2cc1OC [Example 135, 4-(8-Hydroxy-quinolin-5-ylamino)-6,7-dimethoxy-quinoline-3-carbonitrile]	0.537 µM	26.9 µM	> 100 µM	0%	> 1 µM	
COc1ccc2ncc(C#N)c(Nc3ccc4cn[nH]c4c3)c2c1 [Example 141, 4-(1H -Indazol 6-ylamino)-6-methoxy-quinoline-3-carbonitrile]	> 31.7 µM	63.4 µM	1.1 µM and 2 µM	5.5%	> 1 µM	
COc1ccc2ncc(C#N)c(Nc3ccc4nn[nH]c4c3)c2c1 [Example 142, 4-(3H -Benzotriazol-5-ylamino)-6-methoxy-quinoline-3-carbonitrile]	> 31.6 µM	94.8 µM	30 µM	24%	> 1 µM	
COc1ccc2c(Nc3ccc4nn[nH]c4c3)c(C#N)cnc2c1 [Example 144, 4-(3H -benzotriazol-5-ylamino)-7-methoxy-quinoline-3-carbinitile]	> 31.6 µM	> 94.8 µM and 94.8 µM		14%	> 1 µM	IC50 ([3]; read-out: Mek-Erk µM): > 100 µM
COc1cccc2c(Nc3ccc4cn[nH]c4c3)c(C#N)cnc12 [Example 148, 4-(1H -Indazol-6-ylamino)-8-methoxy-quinoline-3-carbonitrile]	> 63.4 µM	> 95.1 µM	> 100 µM	11%	> 1 µM	
COc1cccc2c(Nc3ccc4nn[nH]c4c3)c(C#N)cnc12 [Example 149, 4-(3H -benzotriazol-5-ylamino)-8-methoxy-quinoline-3-carbonitrile]	> 31.6 µM	> 94.8 µM		9%	> 1 µM	IC50 ([3]; read-out: Mek-Erk µM): > 100 µM
COc1cc2ncc(C#N)c(Nc3ccc4ncccc4c3)c2cc1OC [Example 153, 6,7-Dimethoxy-4-(quinoline-6-ylamino)-quinoline-3-carbonitrile]	> 28.1 µM	> 28.1 µM	> 100 µM	14%	> 1 µM	
COc1cc2c(Nc3ccc4nn[nH]c4c3)c(C#N)cnc2c(OC)c1OC [Example 156, 4-(3H-Benzotriazol-5-ylamino)-6,7,8-Trimethoxy-quinoline-3-carbonitrile]	> 26.6 µM	> 79.7 µM		34%	> 1 µM	IC50 ([3]; read-out: Mek-Erk µM): 35 µM
